Measured values published in patent publication US7005418B1, “Method for the therapeutic management of extrauterine proliferation of endometrial tissue, chronic pelvic pain and fallopian tube obstruction” (Zentaris GmbH, priority 1999, dated 2006).
Non-standard residues stand in square brackets, D forms with d. Residues, ends and D or L forms follow the SMILES beside them. dPhe(4-Cl) = N[C@H](Cc1ccc(Cl)cc1)C(=O)O; d2Nal = N[C@H](Cc1ccc2ccccc2c1)C(=O)O; dCit = NC(=O)NCCC[C@@H](N)C(=O)O; d3Pal = N[C@H](Cc1cccnc1)C(=O)O

Legend:
[1] = system: patients with confirmed endometriosis; test: Weekly s.c. LHRH-antagonist treatment for 8 weeks in patients with endometriosis: clinical outcome and tolerability (2nd look laparascopy, histological biopsies); type: in vivo, human (patients); settings: for hot flushes or other (estradiol) withdrawal symptoms / proliferation of the endometrium at the end of treatment (histological biopsies): patients with endometriosis, 3 mg weekly for 8 weeks
Procedure: (§1) The weekly administration of an adequate dose of an LHRH antagonist, e.g. 3 mg Cetrotide® s.c./ per week over a period of eight weeks leads to a controlled suppression of estrogen secretion so that serum concentrations between about 35 pg/ml and about 80 pg/ml, preferably between about 45–75 pg/ml, more preferably between about 50–75 pg/ml are obtained. […] Also the development of osteoporosis can be avoided.

estradiol secretion = test: Weekly s.c. LHRH-antagonist treatment for 8 weeks in patients with endometriosis: estradiol serum levels; type: in vivo, human (patients); settings: weekly dose of 1 mg resp. 3 mg once per week
Procedure: 3 mg once per week. The estradiol serum levels are between about 35–80 pg/ml, preferably between about 45–75 pg/ml, more preferably between about 50–75 pg/ml.
as §1

[2] = nine patients with confirmed endometriosis, 3 mg s.c. weekly for 8 weeks

| SMILES | ovarian cyst formation [1, 2] | progress of the disease, confirmed by 2nd look laparascopy [1, 2] | hot flushes or other (estradiol) withdrawal symptoms [1] | proliferation of the endometrium at the end of treatment (histological biopsies) [1] | estradiol serum levels (FIG. 2) (estradiol secretion) |
| --- | --- | --- | --- | --- | --- |
| CC(=O)N[C@H](Cc1ccc2ccccc2c1)C(=O)N[C@H](Cc1ccc(Cl)cc1)C(=O)N[C@H](Cc1cccnc1)C(=O)N[C@@H](CO)C(=O)N[C@@H](Cc1ccc(O)cc1)C(=O)N[C@H](CCCNC(N)=O)C(=O)N[C@@H](CC(C)C)C(=O)N[C@@H](CCCNC(=N)N)C(=O)N1CCC[C@H]1C(=O)N[C@H](C)C(N)=O [Cetrorelix acetate] (Ac-[d2Nal][dPhe(4-Cl)][d3Pal]SY[dCit]LRP[dA]-NH2) | No ovarian cyst formation occurred | without any progress of the disease | avoiding any hot flushes or other withdrawal symptoms | no proliferation of the endometrium |  |
| CC(=O)N[C@H](Cc1ccc2ccccc2c1)C(=O)N[C@H](Cc1ccc(Cl)cc1)C(=O)N[C@H](Cc1cccnc1)C(=O)N[C@@H](CO)C(=O)N[C@@H](Cc1ccc(O)cc1)C(=O)N[C@H](CCCNC(N)=O)C(=O)N[C@@H](CC(C)C)C(=O)N[C@@H](CCCNC(=N)N)C(=O)N1CCC[C@H]1C(=O)N[C@H](C)C(N)=O [Cetrorelix] (Ac-[d2Nal][dPhe(4-Cl)][d3Pal]SY[dCit]LRP[dA]-NH2) |  |  | without any signs of estradiol withdrawal symptoms | without proliferation of the endometrium | 35 to 80 pg/mL |
